According to PubChem BioAssay (NCI):
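Interpolation was linear, between the two tested concentrations surrounding the appropriate level; five concentrations were tested over 48 hours in 96-well plates. TGI: concentration producing complete growth inhibition.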

Legend:
Experiment in all cases: NCI-60 cell line screen, 48 h
[1] = test system: 786-0 renal
[2] = test system: A498 renal
[3] = test system: A549 NSCLC
[4] = test system: ACHN renal
[5] = test system: CAKI-1 renal
[6] = test system: CCRF-CEM leukemia
[7] = test system: COLO 205 colon
[8] = test system: DU-145 prostate
[9] = test system: EKVX NSCLC
[10] = test system: HCC-2998 colon
[11] = test system: HCT-116 colon
[12] = test system: HCT-15 colon
[13] = test system: HL-60(TB) leukemia
[14] = test system: HOP-62 NSCLC
[15] = test system: HOP-92 NSCLC
[16] = test system: HS 578T breast
[17] = test system: HT29 colon
[18] = test system: IGROV1 ovarian
[19] = test system: K-562 leukemia
[20] = test system: KM12 colon
[21] = test system: LOX IMVI melanoma
[22] = test system: M14 melanoma
[23] = test system: MALME-3M melanoma
[24] = test system: MDA-MB-231 breast
[25] = test system: MDA-MB-435
[26] = test system: MDA-N
[27] = test system: MOLT-4 leukemia
[28] = test system: NCI-H226 lung
[29] = test system: NCI-H23 lung
[30] = test system: NCI-H460 lung
[31] = test system: NCI-H522 lung
[32] = test system: NCI/ADR-RES ovarian
[33] = test system: OVCAR-3 ovarian
[34] = test system: OVCAR-4 ovarian
[35] = test system: OVCAR-5 ovarian
[36] = test system: OVCAR-8 ovarian
[37] = test system: PC-3 prostate
[38] = test system: RPMI-8226 leukemia
[39] = test system: RXF 393 renal
[40] = test system: SF-268 CNS
[41] = test system: SF-295 CNS
[42] = test system: SF-539 CNS
[43] = test system: SK-MEL-2 melanoma
[44] = test system: SK-MEL-28 melanoma
[45] = test system: SK-MEL-5 melanoma
[46] = test system: SK-OV-3 ovarian
[47] = test system: SN12C renal
[48] = test system: SNB-19 CNS
[49] = test system: SNB-75 CNS
[50] = test system: SR leukemia
[51] = test system: SW-620 colon
[52] = test system: T-47D breast
[53] = test system: TK-10 renal
[54] = test system: UACC-257 melanoma
[55] = test system: UACC-62 melanoma
[56] = test system: UO-31 renal
[57] = test system: BT-549 breast
[58] = test system: MCF7 breast

`O=[N+]([O-])/C=C/c1cn(CCCCCCCCn2cc(/C=C/[N+](=O)[O-])c3ccccc32)c2ccccc12` showed a TGI [1] of over 10 µM, a TGI [2] of over 10 µM and a TGI [3] of over 10 µM. It also gave a TGI [4] of over 10 µM, a TGI [5] of over 10 µM and a TGI [6] of over 10 µM. It also gave a TGI [7] of over 10 µM, a TGI [8] of over 10 µM and a TGI [9] of over 10 µM. For the same compound, the TGI [10] was over 10 µM, the TGI [11] was 0.396 µM and the TGI [12] was over 10 µM. The TGI [13] was over 10 µM, the TGI [14] was over 10 µM and the TGI [15] was over 10 µM. It also gave a TGI [16] of over 10 µM, a TGI [17] of over 10 µM and a TGI [18] of over 10 µM. For the same compound, the TGI [19] was over 10 µM, the TGI [20] was over 10 µM and the TGI [21] was over 10 µM. For the same compound, the TGI [22] was over 10 µM, the TGI [23] was over 10 µM and the TGI [24] was over 10 µM. It also gave a TGI [25] of over 10 µM, a TGI [26] of over 10 µM and a TGI [27] of over 10 µM. The TGI [28] was over 10 µM, the TGI [29] was over 10 µM and the TGI [30] was over 10 µM. The TGI [31] was over 10 µM, the TGI [32] was over 10 µM and the TGI [33] was over 10 µM. It also gave a TGI [34] of over 10 µM, a TGI [35] of over 10 µM and a TGI [36] of over 10 µM. For the same compound, the TGI [37] was over 10 µM, the TGI [38] was 1.11 µM and the TGI [39] was over 10 µM. It also gave a TGI [40] of over 10 µM, a TGI [41] of over 10 µM and a TGI [42] of over 10 µM. For the same compound, the TGI [43] was over 10 µM, the TGI [44] was over 10 µM and the TGI [45] was over 10 µM. The TGI [46] was over 10 µM, the TGI [47] was over 10 µM and the TGI [48] was over 10 µM. The TGI [49] was over 10 µM, the TGI [50] was over 10 µM and the TGI [51] was over 10 µM. It also gave a TGI [52] of over 10 µM, a TGI [53] of over 10 µM and a TGI [54] of over 10 µM. For the same compound, the TGI [55] was over 10 µM and the TGI [56] was over 10 µM.
Compound `COc1ccc2c3c(c4cc(OC)c(OC)cc4c2c1)CN1CCC[C@H]1[C@@H]3O` has a TGI [3] of over 55.4 µM, a TGI [57] of 6.76 µM and a TGI [5] of 0.234 µM. It also gave a TGI [7] of 0.304 µM, a TGI [9] of 0.578 µM and a TGI [11] of 1.22 µM. It also gave a TGI [12] of 1.19 µM, a TGI [14] of 2.81 µM and a TGI [17] of 0.373 µM. For the same compound, the TGI [18] was 0.326 µM, the TGI [19] was 0.653 µM and the TGI [20] was 0.341 µM. The TGI [22] was 1.3 µM, the TGI [23] was 0.829 µM and the TGI [58] was over 100 µM. For the same compound, the TGI [25] was 4.21 µM, the TGI [26] was 0.706 µM and the TGI [28] was 11.5 µM. The TGI [29] was 0.169 µM, the TGI [31] was 2.85 µM and the TGI [32] was 26.1 µM. For the same compound, the TGI [33] was over 21.1 µM, the TGI [34] was 31.2 µM and the TGI [35] was over 28.3 µM. It also gave a TGI [37] of over 41.9 µM, a TGI [38] of 5.17 µM and a TGI [39] of 7.64 µM. The TGI [41] was 4.03 µM, the TGI [42] was 0.829 µM and the TGI [43] was 0.591 µM. For the same compound, the TGI [44] was 0.667 µM, the TGI [45] was 0.398 µM and the TGI [46] was over 100 µM. It also gave a TGI [47] of 0.237 µM, a TGI [48] of 2.13 µM and a TGI [50] of 4.87 µM. For the same compound, the TGI [51] was over 39.8 µM and the TGI [54] was 0.544 µM.
